Results published in patent publication US20040063662A1, “Selenophene anti-tumor agents” (priority 1996, published 2004).

Legend:
NCI-H23 = assay: NCI human tumor cell panel: NCI-H23 (Non-Small Cell Lung Cancer); assay type: cell-based; settings: for GI50: NCI-H23, read-out: Log10 GI50 (converted); for IC (TGI): NCI-H23, read-out: Log10 TGI (converted)
HOP-92 = assay: NCI human tumor cell panel: HOP-92 (Non-Small Cell Lung Cancer); settings: for GI50: HOP-92, read-out: Log10 GI50 (converted); for IC (TGI): HOP-92, read-out: Log10 TGI
SNB-19 = assay: NCI human tumor cell panel: SNB-19 (CNS Cancer); assay type: cell-based; settings: for GI50: SNB-19, read-out: Log10 GI50 (converted); for IC (TGI): SNB-19, read-out: Log10 TGI (converted)
MCF7 = assay: NCI human tumor cell panel: MCF7 (Breast Cancer); assay type: cell-based; settings: for GI50: MCF7, read-out: Log10 GI50 (converted); for IC (TGI): MCF7, read-out: Log10 TGI (converted)
OVCAR-3 = assay: NCI human tumor cell panel: OVCAR-3 (Ovarian Cancer); assay type: cell-based; settings: for GI50: OVCAR-3, read-out: Log10 GI50 (converted); for IC (TGI): OVCAR-3, read-out: Log10 TGI (converted)
SK-MEL-28 = assay: NCI human tumor cell panel: SK-MEL-28 (Melanoma); assay type: cell-based; settings: for GI50: SK-MEL-28, read-out: Log10 GI50 (converted); for IC (TGI): SK-MEL-28, read-out: Log10 TGI (converted)
U251 = assay: NCI human tumor cell panel: U251 (CNS Cancer); assay type: cell-based; settings: for GI50: U-251, U251, read-out: Log10 GI50 (converted); for IC (TGI): U-251, U251, read-out: Log10 TGI (converted)
SF-295 = assay: NCI human tumor cell panel: SF-295 (CNS Cancer); assay type: cell-based; settings: for GI50: SF-295, read-out: Log10 GI50 (converted); for IC (TGI): SF-295, read-out: Log10 TGI (converted)
UACC-62 = assay: NCI human tumor cell panel: UACC-62 (Melanoma); assay type: cell-based; settings: for GI50: UACC-62, read-out: Log10 GI50 (converted); for IC (TGI): UACC-62, read-out: Log10 TGI (converted)
SF-539 = assay: NCI human tumor cell panel: SF-539 (CNS Cancer); assay type: cell-based; settings: for GI50: SF-539, read-out: Log10 GI50 (converted); for IC (TGI): SF-539, read-out: Log10 TGI (converted)
UACC-257 = assay: NCI human tumor cell panel: UACC-257 (Melanoma); assay type: cell-based; settings: for GI50: UACC-257, read-out: Log10 GI50 (converted); for IC (TGI): UACC-257, read-out: Log10 TGI (converted)
OVCAR-4 = assay: NCI human tumor cell panel: OVCAR-4 (Ovarian Cancer); assay type: cell-based; settings: for IC (TGI): OVCAR-4, read-out: Log10 TGI (converted)
MDA-N = assay: NCI human tumor cell panel: MDA-N (Breast Cancer); assay type: cell-based; settings: for GI50: read-out: Log10 GI50 (converted); for IC (TGI): read-out: Log10 TGI (converted)
MOLT-4 = assay: NCI human tumor cell panel: MOLT-4 (Leukemia); assay type: cell-based; settings: for GI50: MOLT-4, read-out: Log10 GI50 (converted); for IC (TGI): MOLT-4, read-out: Log10 TGI (converted)
M14 = assay: NCI human tumor cell panel: M14 (Melanoma); assay type: cell-based; settings: for GI50: M14, read-out: Log10 GI50 (converted); for IC (TGI): M14, read-out: Log10 TGI (converted)
HS 578T = assay: NCI human tumor cell panel: HS 578T (Breast Cancer); assay type: cell-based; settings: for GI50: read-out: Log10 GI50 (converted); for IC (TGI): read-out: Log10 TGI (converted)
MCF7/ADR-RES = assay: NCI human tumor cell panel: MCF7/ADR-RES (Breast Cancer); assay type: cell-based; settings: for GI50: read-out: Log10 GI50 (converted); for IC (TGI): read-out: Log10 TGI (converted)
CCRF-CEM = assay: NCI human tumor cell panel: CCRF-CEM (Leukemia); assay type: cell-based; settings: for GI50: read-out: Log10 GI50 (converted); for IC (TGI): read-out: Log10 TGI (converted)
MALME-3M = assay: NCI human tumor cell panel: MALME-3M (Melanoma); assay type: cell-based; settings: Malme-3M; for GI50: read-out: Log10 GI50 (converted)
A549/ATCC = assay: NCI human tumor cell panel: A549/ATCC (Non-Small Cell Lung Cancer); assay type: cell-based; settings: for GI50: read-out: Log10 GI50 (converted); for IC (TGI): read-out: Log10 TGI (converted)
SK-MEL-5 = assay: NCI human tumor cell panel: SK-MEL-5 (Melanoma); assay type: cell-based; settings: for IC (TGI): SK-MEL-5, read-out: Log10 TGI (converted)
HT29 = assay: NCI human tumor cell panel: HT29 (Colon Cancer); assay type: cell-based; settings: HT-29, HT29, read-out: Log10 TGI (converted)
ACHN = assay: NCI human tumor cell panel: ACHN (Renal Cancer); assay type: cell-based; settings: for GI50: read-out: Log10 GI50 (converted); for IC (TGI): read-out: Log10 TGI (converted)
NCI-H460 = assay: NCI human tumor cell panel: NCI-H460 (Non-Small Cell Lung Cancer); assay type: cell-based; settings: for IC (TGI): NCI-H460, read-out: Log10 TGI (converted)
MDA-MB-435 = assay: NCI human tumor cell panel: MDA-MB-435 (Breast Cancer); assay type: cell-based; settings: for GI50: MDA-MB-435, read-out: Log10 GI50 (converted); for IC (TGI): MDA-MB-435, read-out: Log10 TGI (converted)
PC-3 = assay: NCI human tumor cell panel: PC-3 (Prostate Cancer); assay type: cell-based; settings: for GI50: PC-3, read-out: Log10 GI50 (converted); for IC (TGI): PC-3, read-out: Log10 TGI (converted)
A498 = assay: NCI human tumor cell panel: A498 (Renal Cancer); assay type: cell-based; settings: for GI50: A498, read-out: Log10 GI50 (converted); for IC (TGI): A498, read-out: Log10 TGI (converted)
TK-10 = assay: NCI human tumor cell panel: TK-10 (Renal Cancer); assay type: cell-based; settings: for GI50: TK-10, read-out: Log10 GI50 (converted); for IC (TGI): TK-10, read-out: Log10 TGI (converted)
HOP-62 = assay: NCI human tumor cell panel: HOP-62 (Non-Small Cell Lung Cancer); assay type: cell-based; settings: for IC (TGI): HOP-62, read-out: Log10 TGI (converted)
HCT-116 = assay: NCI human tumor cell panel: HCT-116 (Colon Cancer); assay type: cell-based; settings: for GI50: HCT-116, read-out: Log10 GI50 (converted); for IC (TGI): HCT-116, read-out: Log10 TGI (converted)
NCI-H322M = assay: cells; assay type: cell-based; settings: Homo sapiens; for GI50: read-out: Log10 GI50 (converted); for IC (TGI): read-out: Log10 TGI (converted)
SR = assay: NCI human tumor cell panel: SR (Leukemia); assay type: cell-based; settings: for GI50: read-out: Log10 GI50 (converted); for IC (TGI): read-out: Log10 TGI (converted)

## OCc1ccc(-c2ccc(-c3ccc(CO)s3)[se]2)s1 [compound 675343]
NCI-H23
  GI50: > 100 µM
  IC (TGI): > 100 µM
HOP-92
  GI50: 40.7 µM
  IC (TGI): > 100 µM
SNB-19
  GI50: > 100 µM
  IC (TGI): > 100 µM
MCF7
  GI50: < 0.01 µM
  IC (TGI): > 100 µM
OVCAR-3
  GI50: 0.0257 µM
  IC (TGI): 32.4 µM
SK-MEL-28
  GI50: > 100 µM
  IC (TGI): > 100 µM
U251
  GI50: < 0.01 µM
  IC (TGI): > 100 µM
SF-295
  GI50: > 100 µM
  IC (TGI): > 100 µM
UACC-62
  GI50: < 0.01 µM
  IC (TGI): > 100 µM
SF-539
  GI50: > 100 µM
  IC (TGI): > 100 µM
UACC-257
  GI50: < 0.01 µM
  IC (TGI): < 0.01 µM
OVCAR-4; OVCAR-4, read-out: Log10 GI50 (converted)
  GI50: < 0.01 µM
OVCAR-4
  IC (TGI): > 100 µM
MDA-N
  GI50: > 100 µM
  IC (TGI): > 100 µM
MOLT-4
  GI50: 28.8 µM
  IC (TGI): 87.1 µM
M14
  GI50: > 100 µM
  IC (TGI): > 100 µM
HS 578T
  GI50: > 100 µM
  IC (TGI): > 100 µM
MCF7/ADR-RES
  GI50: > 100 µM
  IC (TGI): > 100 µM
CCRF-CEM
  GI50: 22.4 µM
  IC (TGI): 60.3 µM
MALME-3M
  GI50: > 100 µM
MALME-3M; read-out: Log10 TGI (converted)
  IC (TGI): > 100 µM
A549/ATCC
  GI50: > 100 µM
  IC (TGI): > 100 µM
SK-MEL-5
  IC (TGI): > 100 µM
HT29
  IC (TGI): > 100 µM
ACHN
  GI50: > 100 µM
  IC (TGI): > 100 µM
NCI-H460; NCI-H460, read-out: Log10 GI50 (converted)
  GI50: < 0.01 µM
NCI-H460
  IC (TGI): > 100 µM
MDA-MB-435
  GI50: > 100 µM
  IC (TGI): > 100 µM
PC-3
  GI50: > 100 µM
  IC (TGI): > 100 µM
A498
  GI50: < 0.01 µM
  IC (TGI): < 0.01 µM
TK-10
  GI50: < 0.01 µM
  IC (TGI): < 0.01 µM
HOP-62; HOP-62, read-out: Log10 GI50 (converted)
  GI50: > 100 µM
HOP-62
  IC (TGI): > 100 µM
HCT-116
  GI50: < 0.01 µM
  IC (TGI): > 100 µM
NCI-H322M
  GI50: 9.77 µM
  IC (TGI): > 100 µM
SR
  GI50: > 100 µM
  IC (TGI): > 100 µM

## OCc1ccc(-c2ccc(-c3ccc[se]3)s2)[se]1 [compound 676631]
NCI-H23
  GI50: 16.6 µM
  IC (TGI): 38.9 µM
HOP-92
  GI50: > 100 µM
  IC (TGI): > 100 µM
SNB-19
  GI50: 17.4 µM
  IC (TGI): > 100 µM
MCF7
  GI50: 0.0933 µM
  IC (TGI): 21.9 µM
OVCAR-3
  GI50: 0.0275 µM
  IC (TGI): 0.138 µM
SK-MEL-28
  GI50: 66.1 µM
  IC (TGI): > 100 µM
U251
  GI50: 0.0776 µM
  IC (TGI): 20 µM
SF-295
  GI50: 55 µM
  IC (TGI): > 100 µM
UACC-62
  GI50: 0.0263 µM
  IC (TGI): 0.115 µM
SF-539
  GI50: 12.3 µM
  IC (TGI): 57.5 µM
UACC-257
  GI50: 0.0316 µM
  IC (TGI): > 100 µM
OVCAR-4
  IC (TGI): > 100 µM
MDA-N
  GI50: 16.6 µM
  IC (TGI): 43.7 µM
MOLT-4
  GI50: > 100 µM
  IC (TGI): > 100 µM
M14
  GI50: 20 µM
  IC (TGI): > 100 µM
HS 578T
  GI50: > 100 µM
  IC (TGI): > 100 µM
MCF7/ADR-RES
  GI50: 10 µM
  IC (TGI): 31.6 µM
CCRF-CEM
  GI50: > 100 µM
  IC (TGI): > 100 µM
MALME-3M
  GI50: > 100 µM
A549/ATCC
  GI50: 58.9 µM
  IC (TGI): > 100 µM
SK-MEL-5; SK-MEL-5, read-out: Log10 GI50 (converted)
  GI50: > 100 µM
SK-MEL-5
  IC (TGI): > 100 µM
HT29
  IC (TGI): > 100 µM
ACHN
  GI50: > 100 µM
  IC (TGI): > 100 µM
NCI-H460
  IC (TGI): > 100 µM
MDA-MB-435
  GI50: 8.13 µM
  IC (TGI): 55 µM
PC-3
  GI50: 52.5 µM
  IC (TGI): > 100 µM
A498
  GI50: 0.0275 µM
  IC (TGI): 0.0832 µM
TK-10
  GI50: 0.0501 µM
  IC (TGI): 0.372 µM
HOP-62
  IC (TGI): > 100 µM
HCT-116
  GI50: 0.0537 µM
  IC (TGI): > 100 µM
NCI-H322M
  GI50: 21.9 µM
  IC (TGI): > 100 µM
SR
  GI50: > 100 µM
  IC (TGI): > 100 µM
